The source of these data is patent US20090176846A1, “N-hydroxy-4- {5- [4- (5-isopropyl-2-methyl-1, 3-thiazol-4-yl) phenoxy] pentoxy} benzamidine 2 methanesulfonic acid salt” (priority 2005, published 2009).

Molecules are shown by their SMILES. In brackets after ≈: the same amount, converted by molar mass. Structures can show the parent of a compound that is named as a salt. Where two headings read alike, the source gives them in different places.

Series [1] deals with allergic inflammatory diseases (asthma). The following applies: asthmatic mice, cited from earlier work.
Series [2] in a line: Pharmacokinetic evaluation in SD rats. Type of series: in vivo. As to conditions: 50 mg/kg; for Cmax (maximum blood concentration): n=4. How it is done:
The 2 methanesulfonic acid salt, prepared in Example 1, and the 1 methanesulfonic acid salt, prepared in Comparative Example 1, of N-Hydroxy-4-{5-[4-(5-isopropyl-2-methyl-1,3-thiazol-4-yl)phenoxy]pentoxy} benzamidine, and the N-Hydroxy-4-{5-[4-(5-isopropyl-2-methyl-1,3-thiazol-4-yl)phenoxy]pentoxy} benzamidine, prepared in Reference Preparation Example 1, were individually administered to SD rats in a dosage of 50 mg/kg. At given time points (0, 0.5, 1, 1.5, 2, 3, 5 and 8 hrs), rats were mildly anesthetized with diethyl ether, and blood samples were collected from the orbital venous plexus and stored at −20° C. until concentration analysis. The plasma samples were mixed with an equal volume of an internal standard substance solution (prepared by dissolving betamethasone in acetonitrile to give a final concentration of 30 μg/ml) with agitation for. 1 min, and was centrifuged at 12,000 rpm for 10 min. Active components of the plasma samples were analyzed by HPLC (Model: Waters Module 1). From the obtained data, pharmacokinetic parameters (maximum blood concentration (Cmax) and area under the blood concentration-time curve (AUC) were calculated by noncompartment analysis using the WinNonlin program (Version 1.0, Scientific Consulting Inc., USA). The results are given in Table 5, below.

Series [3] can be described thus: Solubility in various solvents at room temperature. Type of series: physicochemical. From the text:
The 2 methanesulfonic acid salt, prepared in Example 1, and the 1 methanesulfonic acid salt, prepared in Comparative Example 1, of N-Hydroxy-4-{5-[4-(5-isopropyl-2-methyl-1,3-thiazol-4-yl)phenoxy]pentoxy} benzamidine, and the N-Hydroxy-4-{5-[4-(5-isopropyl-2-methyl-1,3-thiazol-4-yl)phenoxy]pentoxy} benzamidine, prepared in Reference Preparation Example 1, were examined for solubility (μg/mL) in various solvents at room temperature.

Another series has as its system bone fractures. As to conditions: rats, compared to control not treated; cited from earlier work.
The nature of series [4]: Stability under accelerated conditions (40±2° C./75±5% RH), HPLC content. Format: physicochemical. As to conditions: for Content (%): 40±2° C./75±5% RH, cap-opened vial, HPLC area percentage. The procedure:
The 2 methanesulfonic acid salt of N-Hydroxy-4-{5-[4-(5-isopropyl-2-methyl-1,3-thiazol-4-yl)phenoxy]pentoxy} benzamidine, prepared in Example 1, was placed into a transparent glass vial, and stored at a cap-opened state under accelerated conditions (40±2° C./75±5% RH) for a period of two weeks. Thereafter, the sample was analyzed by HPLC (Waters Module 1). The analysis was performed using a column packed with an octadecyl-silylated silica gel (Shiseido CAPCELL PAK C18, UG 120, Particle size 5 μm) under conditions: UV detection: 256 nm, injection volume: 10 μl, mobile-phase flow rate: 1.5 mL/min. The amount of the compound was calculated as an area percentage.

Setting [5] is: dose-dependent, compared to control group.
The mark [6] stands for this setting: distilled water, room temperature.

Consider `Cc1nc(-c2ccc(OCCCCCOc3ccc(C(=N)NO)cc3)cc2)c(C(C)C)s1` [Free base, N-Hydroxy-4-{5-[4-(5-isopropyl-2-methyl-1,3-thiazol-4-yl)phenoxy]pentoxy} benzamidine], for which, in series [1] (compared to control group), the alveolar area result is on record as “significantly increased”. For the same compound, in series [1] (setting [5]), the number of eosinophils result was “significantly decreased”, the “number of eosinophils in bronchoalveolar lavage fluid” value was “significantly decreased” and the “total number of leukocytes” value is “significantly decreased”. Besides, the “increase in lung weight” value in series [1] (oral administration for 18 days, compared to control given sterile distilled water) is “suppressed”. For the same compound, in series [2] (SD, rat, plasma, n=4, 0-8 hrs, read-out: AUC (area under the blood concentration-time curve)), the AUC was determined as 5310 ± 490 ng·h/mL. Also, the Cmax in series [2] (SD, rat, plasma, n=4, read-out: Cmax (maximum blood concentration)) is 1090 ± 170 ng/mL. The solubility in series [3] (setting [6]) was determined as 3.48 µg/mL (≈ 7.67 µM). Besides, the solubility in series [3] (solvent of pH 1.2 (composition not named), pH 1.2, simulated gastric fluid, pH 1.2, room temperature, read-out: solubility) is 951 µg/mL (≈ 2100 µM). In the series with bone fractures, the “bone mineral content of callus” value is “significantly enhanced”; the bone tissue density result is recorded as “significantly increased”; the callus volume is recorded as “significantly reduced”; the “content of connective and soft tissues in the callus tissue” value was “significantly reduced”. In addition, in the series on bone fractures, the “mechanical strength of callus” value is listed as “significantly enhanced”.

For the compound `Cc1nc(-c2ccc(OCCCCCOc3ccc(C(=N)NO)cc3)cc2)c(C(C)C)s1` [2 methanesulfonic acid salt, N-Hydroxy-4-{5-[4-(5-isopropyl-2-methyl-1,3-thiazol-4-yl)phenoxy]pentoxy} benzamidine 2 methansulfonic acid salt], in series [2], the “Cmax (maximum blood concentration)” value was 1670 ± 320 ng/mL. For the same compound, in series [2] (n=4, 0-8 hrs), the AUC (area under the blood concentration-time curve) is 10300 ± 800 ng·h/mL. For the same compound, in series [2] (SD, rat, plasma, read-out: bioavailability relative to the 1 methanesulfonic acid salt), the bioavailability is above 46%. For the same compound, the solubility is 3,535.33 μg/mL in series [3] (setting [6]); 1,686.71 μg/mL in series [3] (pH 1.2, room temperature); 3 µg/mL in series [3] (solvent of pH 4.0 (composition not named), pH 4, aqueous buffer, pH 4.0, room temperature, read-out: solubility). Also, the “solubility fold higher than the 1 methanesulfonic acid salt” value in series [3] (pH 4.0) was “about 3 fold”. Further, the “change in content in accelerated test” value in series [4] (accelerated test at 40° C., two weeks) is “no change”. The “Content (%)” value in series [4] (after 1 week) was determined as 99.87%; in series [4] (after 2 weeks) it was 99.86%; in series [4] (after 2 days) it was 99.86%; in series [4] (early stage), 99.85%.

Take `CS(=O)(=O)O.Cc1nc(-c2ccc(OCCCCCOc3ccc(C(=N)NO)cc3)cc2)c(C(C)C)s1` [1 methanesulfonic acid salt, N-Hydroxy-4-{5-[4-(5-isopropyl-2-methyl-1,3-thiazol-4-yl)phenoxy]pentoxy} benzamidine 1 methanesulfonic acid salt]: the “Cmax (maximum blood concentration)” value in series [2] came to 1400 ± 110 ng/mL. In series [2] (n=4, 0-8 hrs), this compound returned an AUC (area under the blood concentration-time curve) of 7010 ± 600 ng·h/mL. Besides, the solubility in series [3] (setting [6]) was 414.34 µg/mL; in series [3] (pH 1.2, room temperature) it was 1,092.98 μg/mL; in series [3] (pH 4.0, room temperature), 0.99 µg/mL.
